Test results taken from PubChem BioAssay (NCI).
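GI50: concentration for 50% inhibition of growth. The concentration for full growth arrest is given as TGI.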

What was measured:
Assay in all cases: growth of human tumour cells (NCI), 384-well format
SN12C renal = system: SN12C renal
HCT-15 colon = system: HCT-15 colon
MDA-MB-435 melanoma = system: MDA-MB-435 melanoma
DU-145 prostate = system: DU-145 prostate
HCC-2998 colon = system: HCC-2998 colon
HOP-62 NSCLC = system: HOP-62 NSCLC
ACHN renal = system: ACHN renal
HL-60(TB) leukemia = system: HL-60(TB) leukemia
HCT-116 colon = system: HCT-116 colon
SF-268 CNS = system: SF-268 CNS
PC-3 prostate = system: PC-3 prostate
MALME-3M melanoma = system: MALME-3M melanoma
NCI-H226 lung = system: NCI-H226 lung
SF-295 CNS = system: SF-295 CNS
HT29 colon = system: HT29 colon
SNB-75 CNS = system: SNB-75 CNS
RXF 393 renal = system: RXF 393 renal
OVCAR-8 ovarian = system: OVCAR-8 ovarian
SK-MEL-5 melanoma = system: SK-MEL-5 melanoma
NCI-H460 NSCLC = system: NCI-H460 NSCLC
HOP-92 NSCLC = system: HOP-92 NSCLC
COLO 205 colon = system: COLO 205 colon
BT-549 breast = system: BT-549 breast
OVCAR-4 ovarian = system: OVCAR-4 ovarian
UACC-257 melanoma = system: UACC-257 melanoma
NCI-H23 lung = system: NCI-H23 lung
786-0 renal = system: 786-0 renal
SW-620 colon = system: SW-620 colon
NCI-H522 lung = system: NCI-H522 lung
UACC-62 melanoma = system: UACC-62 melanoma
A549 NSCLC = system: A549 NSCLC
TK-10 renal = system: TK-10 renal
SF-539 CNS = system: SF-539 CNS
LOX IMVI melanoma = system: LOX IMVI melanoma
A498 renal = system: A498 renal
NCI-H322M lung = system: NCI-H322M lung
SK-MEL-28 melanoma = system: SK-MEL-28 melanoma
NCI/ADR-RES ovarian = system: NCI/ADR-RES ovarian
CAKI-1 renal = system: CAKI-1 renal
M14 melanoma = system: M14 melanoma
HS 578T breast = system: HS 578T breast
K-562 leukemia = system: K-562 leukemia
SNB-19 CNS = system: SNB-19 CNS
EKVX NSCLC = system: EKVX NSCLC
RPMI-8226 leukemia = system: RPMI-8226 leukemia
T-47D breast = system: T-47D breast
KM12 colon = system: KM12 colon
U251 glioblastoma = system: U251 glioblastoma
OVCAR-5 ovarian = system: OVCAR-5 ovarian
CCRF-CEM leukemia = system: CCRF-CEM leukemia
MOLT-4 leukemia = system: MOLT-4 leukemia
MCF7 breast = system: MCF7 breast
IGROV1 ovarian = system: IGROV1 ovarian
UO-31 renal = system: UO-31 renal
MDA-MB-468 breast = system: MDA-MB-468 breast
MDA-MB-231 breast = system: MDA-MB-231 breast

SMILES: O=C1NC(=O)C(c2cnc3ccccn23)=C1c1cn2c3c(cc(F)cc13)CN(C(=O)N1CCCCC1)CC2
- GI50 (SN12C renal): 10.7 µM
- TGI (SN12C renal): 38.9 µM
- GI50 (HCT-15 colon): 12.4 µM
- TGI (HCT-15 colon): 34.1 µM
- GI50 (MDA-MB-435 melanoma): 14.8 µM
- TGI (MDA-MB-435 melanoma): 40.4 µM
- GI50 (DU-145 prostate): 2.18 µM
- TGI (DU-145 prostate): 8.62 µM
- GI50 (HCC-2998 colon): 0.128 µM
- TGI (HCC-2998 colon): 0.773 µM
- GI50 (HOP-62 NSCLC): 0.172 µM
- TGI (HOP-62 NSCLC): 2.58 µM
- GI50 (ACHN renal): 0.743 µM
- TGI (ACHN renal): 11.3 µM
- GI50 (HL-60(TB) leukemia): 0.464 µM
- TGI (HL-60(TB) leukemia): 2.72 µM
- GI50 (HCT-116 colon): 1.12 µM
- TGI (HCT-116 colon): 28.4 µM
- GI50 (SF-268 CNS): 0.138 µM
- TGI (SF-268 CNS): 0.491 µM
- GI50 (PC-3 prostate): 2.17 µM
- TGI (PC-3 prostate): 18.8 µM
- GI50 (MALME-3M melanoma): 11.1 µM
- TGI (MALME-3M melanoma): 24 µM
- GI50 (NCI-H226 lung): 1.84 µM
- TGI (NCI-H226 lung): 11.4 µM
- GI50 (SF-295 CNS): 0.0175 µM
- TGI (SF-295 CNS): 0.735 µM
- GI50 (HT29 colon): 10.3 µM
- TGI (HT29 colon): 24.5 µM
- GI50 (SNB-75 CNS): < 0.01 µM
- TGI (SNB-75 CNS): 14.4 µM
- GI50 (RXF 393 renal): < 0.01 µM
- TGI (RXF 393 renal): 0.362 µM
- GI50 (OVCAR-8 ovarian): 0.833 µM
- TGI (OVCAR-8 ovarian): 14.4 µM
- GI50 (SK-MEL-5 melanoma): 4.08 µM
- TGI (SK-MEL-5 melanoma): 15.4 µM
- GI50 (NCI-H460 NSCLC): 0.701 µM
- TGI (NCI-H460 NSCLC): 3.17 µM
- GI50 (HOP-92 NSCLC): 1.32 µM
- TGI (HOP-92 NSCLC): > 100 µM
- GI50 (COLO 205 colon): 12.7 µM
- TGI (COLO 205 colon): 26 µM
- GI50 (BT-549 breast): < 0.01 µM
- TGI (BT-549 breast): 18.6 µM
- GI50 (OVCAR-4 ovarian): 11.4 µM
- TGI (OVCAR-4 ovarian): 32 µM
- GI50 (UACC-257 melanoma): 18.6 µM
- TGI (UACC-257 melanoma): 33.7 µM
- GI50 (NCI-H23 lung): 11 µM
- TGI (NCI-H23 lung): 25.3 µM
- GI50 ([…]-0 renal): 0.0779 µM
- TGI (786-0 renal): 12.4 µM
- GI50 (SW-620 colon): 0.379 µM
- TGI (SW-620 colon): 15 µM
- GI50 (NCI-H522 lung): 13.5 µM
- TGI (NCI-H522 lung): 26.7 µM
- GI50 (UACC-62 melanoma): 0.513 µM
- TGI (UACC-62 melanoma): 3.74 µM
- GI50 (A549 NSCLC): 2.36 µM
- TGI (A549 NSCLC): 27.8 µM
- GI50 (TK-10 renal): 0.0598 µM
- TGI (TK-10 renal): 43.7 µM
- GI50 (SF-539 CNS): < 0.01 µM
- TGI (SF-539 CNS): 12.7 µM
- GI50 (LOX IMVI melanoma): 0.77 µM
- TGI (LOX IMVI melanoma): 9.29 µM
- GI50 (A498 renal): 0.0156 µM
- TGI (A498 renal): 13.2 µM
- GI50 (NCI-H322M lung): 7.72 µM
- TGI (NCI-H322M lung): 29.2 µM
- GI50 (SK-MEL-28 melanoma): 15.2 µM
- TGI (SK-MEL-28 melanoma): 29.2 µM
- GI50 (NCI/ADR-RES ovarian): 5.91 µM
- TGI (NCI/ADR-RES ovarian): 21.2 µM
- GI50 (CAKI-1 renal): 0.259 µM
- TGI (CAKI-1 renal): 51.4 µM
- GI50 (M14 melanoma): 2.18 µM
- TGI (M14 melanoma): 12 µM
- GI50 (HS 578T breast): < 0.01 µM
- GI50 (K-562 leukemia): < 0.01 µM
- TGI (K-562 leukemia): 19.1 µM
- GI50 (SNB-19 CNS): 1.34 µM
- TGI (SNB-19 CNS): 37.9 µM
- GI50 (EKVX NSCLC): 11.7 µM
- TGI (EKVX NSCLC): 26.2 µM
- GI50 (RPMI-8226 leukemia): 0.901 µM
- TGI (RPMI-8226 leukemia): 20.7 µM
- GI50 (T-47D breast): 12.7 µM
- TGI (T-47D breast): 28 µM
- GI50 (KM12 colon): 4.89 µM
- TGI (KM12 colon): 21.6 µM
- GI50 (U251 glioblastoma): 0.0303 µM
- TGI (U251 glioblastoma): 0.332 µM
- GI50 (OVCAR-5 ovarian): 23 µM
- TGI (OVCAR-5 ovarian): 55.3 µM
- GI50 (CCRF-CEM leukemia): < 0.01 µM
- TGI (CCRF-CEM leukemia): 0.245 µM
- GI50 (MOLT-4 leukemia): < 0.01 µM
- TGI (MOLT-4 leukemia): 0.0107 µM
- GI50 (MCF7 breast): < 0.01 µM
- TGI (MCF7 breast): 17.1 µM
- GI50 (IGROV1 ovarian): 2.73 µM
- TGI (IGROV1 ovarian): 22.2 µM
- GI50 (UO-31 renal): < 0.01 µM
- TGI (UO-31 renal): 0.0398 µM
- GI50 (MDA-MB-468 breast): 0.0283 µM
- TGI (MDA-MB-468 breast): 0.116 µM
- GI50 (MDA-MB-231 breast): 16.3 µM
- TGI (MDA-MB-231 breast): 54.9 µM
